From patent publication US20180344756A1, “METHODS FOR THE TREATMENT AND PREVENTION OF RENAL DISORDERS AND FATTY LIVER DISORDERS” (Janssen Pharmaceutica NV, priority 2014, published 2018)

Tests used:
[1] = metformin on its own, in the diabetic; cited from earlier work
[2] = Albumin/creatinine ratio in the CANVAS clinical trial, subjects with micro- or macroalbuminuria; type: in vivo, human; conditions: for median percent change from baseline in ACR at Week 52: subjects with macroalbuminuria, Week 52, 82% of subjects on ACEIs or ARBs at baseline, placebo −3.6%
Procedure: (§1) The albumin/creatinine ratio was measured at baseline, over 12 weeks, over 52 weeks, and over 104 weeks, in subjects participating in the CANagliflozin cardioVascular Assessment Study (CANVAS), the DIA3004 clinical trial, and the DIA3009 clinical trial, respectively. (Complete protocol details for the CANVAS, DIA3004 and DIA3009 clinical trials are available on www.clinicaltrials.gov).
In subjects with macroalbuminuria in CANVAS, the median percent change from baseline in ACR at Week 52 was −3.6% in the placebo group, −58.6% in the canagliflozin 100 mg group, and −53.3% in the canagliflozin 300 mg group.

[3] = eGFR change from baseline over time in the CANVAS, DIA3004 and DIA3009 clinical trials; type: in vivo, human; conditions: maximal at first post baseline visit, stable or attenuated with continued treatment; CANVAS and DIA3004 52 weeks, DIA3009 104 weeks; FIG. 3-5
Excerpt: The time course of eGFR changes over 52 weeks in the CANVAS clinical trial is shown in FIG. 3; over a 52-week study in subjects with moderate renal impairment (in the DIA3004 clinical trial) are shown in FIG. 4; and over a 104-week period in an active comparator study (DIA3009, add-on to metformin) are shown in FIG. 5.

[4] = Albuminuria in the DIA3004 clinical trial, subjects with moderate renal impairment; type: in vivo, human; conditions: 52-week study, placebo 19.7%
Procedure: as §1

Row | Compound | average improvement in the HbA1c value [1] | median percent change from baseline in ACR at Week 52 ([2]; canagliflozin 100 mg) | median percent change from baseline in ACR at Week 52 ([2]; canagliflozin 300 mg) | albuminuria after 52 weeks of treatment (in words) ([2]; subjects with micro- and macroalbuminuria at baseline, FIG. 1 and FIG. 2) | effect on eGFR (in words) [3] | median percent reductions in albuminuria ([4]; baseline eGFR 30 to <50 ml/min/1.73 m^2, canagliflozin 100 mg) | median percent reductions in albuminuria ([4]; baseline eGFR 30 to <50 ml/min/1.73 m^2, canagliflozin 300 mg)
1 | CN(C)C(=N)N=C(N)N [metformin] | 1.0-1.5% |  |  |  |  |  | 
2 | Cc1ccc([C@@H]2O[C@H](CO)[C@@H](O)[C@H](O)[C@H]2O)cc1Cc1ccc(-c2ccc(F)cc2)s1 [canagliflozin] |  | −58.6% | −53.3% | reductions in albuminuria | dose-dependent, reversible reduction in eGFR | −16.4% | −28.0%
